Laboratory results as given in patent publication US7820172B1, “Laminin-derived multi-domain peptides” (BioSurface Engineering Technologies, Inc., priority 2006, dated 2010).
Positions of bridges follow the written chain, without caps; N, C: chain ends. Non-standard residues stand in square brackets, D forms with d. Residues, ends and D or L forms follow the SMILES beside them. Chains are numbered I, II in the order given. No end group written: not given here. Ahx = NCCCCCC(=O)O

Assays:
[1] = tested on: RMEC cells; type: cell-based, rat; conditions: for increase in percentage cells bound on polystyrene: 0.1 μg/ml, two hours, as a percentage of uncoated controls; for cell binding to the polystyrene surface: RMEC cells, versus uncoated controls
Procedure: Cells Adhesion and Proliferation on LA2 coated surfaces. To evaluate the effects of LA2-coating on cell attachment, untreated polystyrene 96-well plates were coated with LA2 in concentration indicated in figures. In the cases of EVA films, ePTFE and titanium, the materials were placed in 48- or 96-well plate and coated with 2 μg/ml of LA2. Cell suspension in density of 1×10^6/ml was added to the wells. […] Cell number on the surface was determined using CyQuant® cell Proliferation Kit (Molecular Probes, Eugene, Oreg.). To detect cell adhesion on the titanium and ePTFE surfaces, cells were fixed with 4% buffered formalin and stained with bis-benzamide, viewed using fluorescence microscopy, and images recorded on digital media. In the cell proliferation studies, EVA films (6.5 mm diameter), similar to those used in the cell adhesion studies, were coated with 2 μg LA2/ml. The coated films were placed in untreated polystyrene 96-well plate and A7R5 cell suspension in density of 1×10^5/ml was added to the wells. After incubation of 3 hours, 3 and 7 days, the EVA films were transferred to a new 96-well plate and cell number on the film was determined using CyQuant® cell Proliferation Kit.
YIGSR is a different laminin adhesion sequence that has been used to increase cell attachment to device surfaces. […] Since cells could bind to LA2 via cell surface heparan sulfate, the heparin binding domain of LA2 was blocked by coating peptide on substrate-adsorbed heparin.

[2] = tested on: cell attachment; assay: Related cell binding assays comparing coatings (cell type not stated); type: cell-based; conditions: coating
[3] = tested on: C2C12 cells; assay: Attachment of C2C12 cells to coated polystyrene; type: cell-based, murine
Procedure: FIG. 1. Microphotographs of C2C12 cell on LA2 polystyrene. Murine myoblast C2C12 cells were seeded on uncoated polystyrene (A), or polystyrene coated 0.05-(B), 0.2-(C), and 0.4 (D) μg/ml LA2. Three hours after cell seeding, the materials were washed with PBS and micrographs taken with phase contrast optics. Original magnification 200×.
FIG. 2. Attachment of C2C12 cells to LA2 or SIKVAV (SEQ ID NO:16) coated polystyrene. C2C12 cells were seeded on polystyrene surface coated with LA2 (A) or SIKVAV (SEQ ID NO:16) (B). Three hours after seeding, unbound cells were removed by rinsing, and relative cell number determined using a fluorescent assay as described.
Cells Adhesion and Proliferation on LA2 coated surfaces. To evaluate the effects of LA2-coating on cell attachment, untreated polystyrene 96-well plates were coated with LA2 in concentration indicated in figures. […] Cell number on the surface was determined using CyQuant® cell Proliferation Kit (Molecular Probes, Eugene, Oreg.). To detect cell adhesion on the titanium and ePTFE surfaces, cells were fixed with 4% buffered formalin and stained with bis-benzamide, viewed using fluorescence microscopy, and images recorded on digital media. […] After incubation of 3 hours, 3 and 7 days, the EVA films were transferred to a new 96-well plate and cell number on the film was determined using CyQuant® cell Proliferation Kit.

[4] = tested on: cell binding; assay: Competitive blocking of cell binding to LA2; type: cell-based; conditions: binding not eliminated by either agent individually
[5] = tested on: Male SD rats; assay: Tissue integration of LA2-coated ePTFE in rat subcutaneous implant model; type: in vivo; conditions: two weeks after implant
Procedure: Tissue integration of LA2-coated material in rat implant model. Male SD rats were anesthetized using an intraperitoneal administration of ketamine (40 mg/kg) and xylazine (5 mg/kg). Excess hair was removed and sterile surgical sites were prepared on the lower back. Subcutaneous pouches, approximately 3 cm long, were made through a skin incision using a hemostat and blunt dissection. A wafer (1×1.5 cm) of porous ePTFE was introduced into a subcutaneous pouch. The pouches were positioned on the upper flanks on either side of the backbone, with one wafer coated with MD LA2 and the other wafer uncoated. After the implant, the incision was closed with stainless steel surgical clips. Animals were assigned to experiment groups randomly. Each animal received bilateral subcutaneous implants. There were 8 implant sites for each treatment. After 14 days, animals were euthanized and the ePTFE implants were surgically recovered and processed for subsequent staining with hemotoxylin and eosin.
We hypothesized that ePTFE coated with LA2 would display improved tissue integration. […] In this analysis, the depth of tissue penetration was monitored by histomorphometric methods and scored on a scale of 1-4 (in 25% increments).

| Molecule | increase in percentage cells bound on polystyrene [1] | cell binding to the polystyrene surface [1] | level of cell binding when used as competitive blocking agent [4] | other results |
| --- | --- | --- | --- | --- |
| H-YIGSRAAK(H-YIGSRAA)-Ahx-Ahx-Ahx-RKRKLERIAR-NH2 (chain 1 H-YIGSRAAK[Ahx][Ahx][Ahx]; also: branched: chain 2 on Lys8 side chain of chain 1, chain 1 C-terminus joined to chain 3 N-terminus via Ahx-Ahx-Ahx) [MD Peptide 2, similar multi-domain peptide containing YIGSR] | over 50% | substantially more effective than uncoated controls |  | cell attachment versus linear SIKVAV, dimerized SIKVAV and random-sequence peptides [2]: more effective |
| SEQ ID NO:26 (DTAYKDWPNLFREIR; Random sequence) |  | did not support cell binding |  |  |
| SIKVAV (Cellular attachment peptide sequence) |  |  | reduced the level of cell binding | coating concentration required to achieve the same levels of cell attachment ([3]; C2C12, polystyrene (FIG. 2)): 100 µg/mL; cell attachment compared to uncoated polystyrene ([3]; C2C12 cells, coated polystyrene, 3 hours): able to increase cell attachment |
| SEQ ID NO:25 (KPVSLSYRAPARFFESHVA; Random sequence) |  | did not support cell binding |  |  |
| CC[C@H](C)[C@H](NC(=O)[C@H](CCCNC(=N)N)NC(=O)[C@H](CCC(=O)O)NC(=O)[C@H](CC(C)C)NC(=O)[C@H](CCCCN)NC(=O)[C@H](CCCNC(=N)N)NC(=O)[C@H](CCCCN)NC(=O)[C@H](CCCNC(=N)N)NC(=O)CCCCCNC(=O)CCCCCNC(=O)CCCCCNC(=O)[C@H](CCCCNC(=O)[C@H](C)NC(=O)[C@H](C)NC(=O)[C@@H](NC(=O)[C@H](C)NC(=O)[C@@H](NC(=O)[C@H](CCCCN)NC(=O)[C@@H](NC(=O)[C@@H](N)CO)[C@@H](C)CC)C(C)C)C(C)C)NC(=O)[C@H](C)NC(=O)[C@H](C)NC(=O)[C@@H](NC(=O)[C@H](C)NC(=O)[C@@H](NC(=O)[C@H](CCCCN)NC(=O)[C@@H](NC(=O)[C@@H](N)CO)[C@@H](C)CC)C(C)C)C(C)C)C(=O)N[C@@H](C)C(=O)N[C@@H](CCCNC(=N)N)C(N)=O [LA2, H-SIKVAVAAK(H-SIKVAVAA)-Ahx-Ahx-Ahx-RKRKLERIAR-NH2] (I: H-SIKVAVAAK[Ahx][Ahx][Ahx]RKRKLERIAR-NH2 / II: H-SIKVAVAA; amide I:9-II:C) | over 150% |  |  | inflammation [5]: little evidence of inflammation |
| heparin |  |  | reduced the level of cell binding |  |
